Patent US9493460B2, “Diimide compounds” (UCL BUSINESS PLC, priority 2013, dated 2016)
Where two headings read alike, the source gives them in different places.

Experiments:
[1] = tested on: panel of cancer cell lines; assay: SRB assay, panel of cancer cell lines and normal fibroblast line; assay type: cell-based, human; conditions: 96 h exposure
Procedure: (§1) Human cancer cell lines, MCF7 (breast), A549 (lung), Mia-PaCa2, PANC1 and HPAC (pancreatic), RCC4 and 786-0 renal, and the somatic human cell line WI-38 (lung fibroblast) were purchased from ATCC. Cell lines were maintained in appropriate medium supplemented with 10% foetal bovine serum (Invitrogen, UK), 2 mM L-glutamine (Invitrogen, Netherlands), and other components as specified by the suppliers. Cell lines were maintained at 37° C., 5% CO2 and routinely passaged. Drugs were dissolved in DMSO and filtered through 0.22 μm pore-size filter units before addition to cell line appropriate media. Cellular growth inhibition was measured using the sulforhodamine B (SRB) assay in 96 well plates as described previously.^1,2 Fifty percent inhibitory concentrations (IC50) were determined by taking the mean absorbance at 540 nm for each drug concentration expressed as a percentage of the absorbance of untreated control wells.
(§2) The anti-proliferative activity of the group of nine ND derivatives was assessed using the SRB assay following 96 h exposure to 2-fold serial dilutions of each compound (Table 2) in a panel of cancer cell lines together with a normal fibroblast line. […] In contrast the morpholine compounds all show sub-μM anti-proliferative activity in at least some of the cancer cell lines used and the two compounds 3d, 3h with n=3 —(CH2)n— linkers to the morpholine groups, show particularly potent activity in the Mia-PaCa2 and PANC1 pancreatic carcinoma and A549 lung adenocarcinoma cell lines (IC50 values of 10-20 nM).

786-O (renal) cells = assay: SRB growth inhibition assay, 96 hr exposure, 786-O; assay type: cell-based, human; conditions: SRB assay, 96 hr exposure
Procedure: as §1, §2
(§3) Next a series of structural isomers were tested.

[2] = tested on: WI38 normal human fibroblast cells; assay: SRB growth inhibition assay, 96 hr exposure, WI38; assay type: cell-based
Procedure: as §1
as §2, with “nM). […]” for “nM).”

[3] = tested on: HSP90b promoter quadruplex sequence; assay: FRET melting assay, Hsp90B quadruplex; assay type: binding; conditions: for change in melting temperature Hsp90B 1 uM: 1 uM ligand; for change in melting temperature Hsp90B 2 uM: 2 uM ligand
From the text: (§4) The ability of the naphthalene diimide compounds to stabilize DNA sequences was investigated using a fluorescence resonance energy transfer (FRET) assay modified to be used as a high-throughput screen in a 96-well format. Several quadruplex sequences were studied (the human telomeric G-quadruplex DNA sequence 5′-FAM-d(GGG[TTAGGG]3)-TAMRA-3′ and the duplex sequence 5′-FAM-dTATAGCTATA-HEG-TATAGCTATA-TAMRA-3′ (HEG linker: [(—CH2—CH2—O—)6])), as well as two overlapping sequences from the HSP90 promoter region (HSP90a and HSP90b):
(§5) The labelled oligonucleotides have attached to them the donor fluorophore FAM: 6-carboxyfluorescein and the acceptor fluorophore TAMRA: 6-carboxytetramethylrhodamine. The FRET probe sequences were diluted from stock to the correct concentration (400 nM) in a 60 mM potassium cacodylate buffer (pH 7.4) and then annealed by heating to 85° C. for 10 min, followed by cooling to room temperature in the heating block. The compound was stored as a 10 mM stock solution in DMSO; final solutions (at 2×concentration) were prepared using 10 mM HCl in the initial 1:10 dilution, after which 60 mM potassium cacodylate buffer (pH 7.4) was used in all subsequent steps. The maximum HCl concentration in the reaction volume (at a ligand concentration of 20 μM) is thus 200 μM, well within the range of the buffer used. Relevant controls were also performed to check for interference with the assay. 96-Well plates (MJ Research, Waltham, Mass.) were prepared by aliquoting 50 μl of the annealed DNA into each well, followed by 50 μl of the compound solutions. Measurements were made on a DNA Engine Opticon (MJ Research) with excitation at 450-495 nm and detection at 515-545 nm. Fluorescence readings were taken at intervals of 0.5° C. in the range 30-100° C., with a constant temperature being maintained for 30 s prior to each reading to ensure a stable value. Final analysis of the data was carried out using a script written in the program Origin 7.0 (OriginLab Corp., Northampton, Mass.). The advanced curve-fitting function in Origin 7.0 was used for calculation of ΔTm values. All determinations were performed in triplicate or better. Esds in ΔTm are ±0.1° C. […]

Panc1 (pancreatic) cells = assay: SRB growth inhibition assay, 96 hr exposure, Panc1; assay type: cell-based, human
Procedure: as §1, §2, §3

RCC4 (renal) cells = assay: SRB growth inhibition assay, 96 hr exposure, RCC4; assay type: cell-based, human
Procedure: as §1, §2, §3

[4] = tested on: HSP90a promoter quadruplex sequence; assay: FRET melting assay, Hsp90A quadruplex; assay type: binding; conditions: for change in melting temperature Hsp90A 1 uM: 1 uM ligand; for change in melting temperature Hsp90A 2 uM: 2 uM ligand
From the text: as §4, §5

A549 (lung) cells = assay: SRB growth inhibition assay, 96 hr exposure, A549; assay type: cell-based, human
Procedure: as §1, §2, §3

[5] = tested on: human telomeric G-quadruplex DNA (F21T); assay: FRET melting assay, human telomeric quadruplex; assay type: binding; conditions: for change in melting temperature F21T 1 uM: 1 uM ligand; for change in melting temperature F21T 2 uM: 2 uM ligand
From the text: as §4
(§6) The labelled oligonucleotides have attached to them the donor fluorophore FAM: 6-carboxyfluorescein and the acceptor fluorophore TAMRA: 6-carboxytetramethylrhodamine. The FRET probe sequences were diluted from stock to the correct concentration (400 nM) in a 60 mM potassium cacodylate buffer (pH 7.4) and then annealed by heating to 85° C. for 10 min, followed by cooling to room temperature in the heating block. The compound was stored as a 10 mM stock solution in DMSO; final solutions (at 2×concentration) were prepared using 10 mM HCl in the initial 1:10 dilution, after which 60 mM potassium cacodylate buffer (pH 7.4) was used in all subsequent steps. The maximum HCl concentration in the reaction volume (at a ligand concentration of 20 μM) is thus 200 μM, well within the range of the buffer used. Relevant controls were also performed to check for interference with the assay. 96-Well plates (MJ Research, Waltham, Mass.) were prepared by aliquoting 50 μl of the annealed DNA into each well, followed by 50 μl of the compound solutions. Measurements were made on a DNA Engine Opticon (MJ Research) with excitation at 450-495 nm and detection at 515-545 nm. Fluorescence readings were taken at intervals of 0.5° C. in the range 30-100° C., with a constant temperature being maintained for 30 s prior to each reading to ensure a stable value. Final analysis of the data was carried out using a script written in the program Origin 7.0 (OriginLab Corp., Northampton, Mass.). The advanced curve-fitting function in Origin 7.0 was used for calculation of ΔTm values. All determinations were performed in triplicate or better. Esds in ΔTm are ±0.1° C.
The ability of compounds 3a-h to stabilize a human telomeric quadruplex was assessed by a high-throughput FRET (Fluorescence Resonance Energy Transfer) melting technique. […] None of the furan tetrahydrofuran, pyranose or acyclic ether compounds has any effect on quadruplex or duplex stability.
(§7) The T-loop sequence represents duplex DNA.

duplex DNA (T-loop) = assay: FRET melting assay, duplex DNA; assay type: binding; conditions: for change in melting temperature Tloop 1 uM: 1 uM ligand; for change in melting temperature Tloop 2 uM: 2 uM ligand
From the text: as §4, §6, §7

[6] = tested on: MiaPaCa2 (pancreatic) cells; assay: SRB growth inhibition assay, MiaPaCa2; assay type: cell-based, human; conditions: SRB assay, 96 hr exposure
Procedure: as §1, §2
Dose-response curves were used to guide the choice of compound concentration and time-points for the array experiments (FIG. 2a). […] To explore this response continuum the transcriptional signature of cells exposed for 24 h to 20 nM, 40 nM, 80 nM concentrations of 3d, or solvent alone as control, was analysed as described in Materials and Methods.
as §3

MCF-7 (breast) cells = assay: SRB growth inhibition assay, 96 hr exposure, MCF-7; assay type: cell-based, human
Procedure: as §1, §2, §3

| SMILES | change in melting temperature Hsp90B 1 uM [3] | change in melting temperature Hsp90B 2 uM [3] | change in melting temperature Hsp90A 1 uM [4] | change in melting temperature Hsp90A 2 uM [4] | change in melting temperature F21T 1 uM [5] | change in melting temperature F21T 2 uM [5] | change in melting temperature Tloop 1 uM (duplex DNA (T-loop)) | change in melting temperature Tloop 2 uM (duplex DNA (T-loop)) | IC50 (786-O (renal) cells) [nM] | IC50 [2] [nM] | IC50 (Panc1 (pancreatic) cells; 96 hr exposure) [nM] | IC50 (RCC4 (renal) cells) [nM] | IC50 (A549 (lung) cells; 96 hr exposure) [nM] | IC50 [6] [nM] | IC50 (MCF-7 (breast) cells) [nM] | further results |
| --- | --- | --- | --- | --- | --- | --- | --- | --- | --- | --- | --- | --- | --- | --- | --- | --- |
| CN1CCN(CCCNc2cc3c4c(c(NCCCN5CCN(C)CC5)cc5c4c2C(=O)N(CC2CCCO2)C5=O)C(=O)N(CC2CCCO2)C3=O)CC1 (racemic) [Compound 3a, 4,9-bis((3-(4-methylpiperazin-1-yl)propyl)amino)-2,7-bis((tetrahydrofuran-2-yl)methyl)benzo[lmn][3,8]phenanthroline-1,3,6,8(2H,7H)-tetraone] |  |  |  |  |  |  |  |  |  |  |  |  |  |  |  | anti-proliferative activity (in words) [1]: devoid of significant anti-proliferative activity in all except the Mia-PaCa2 and A549 lines |
| CN1CCN(CCCNc2cc3c4c(c(NCCCN5CCN(C)CC5)cc5c4c2C(=O)N(CCCN2CCOCC2)C5=O)C(=O)N(CCCN2CCOCC2)C3=O)CC1 [MM41] | 29 | 33 | 33 | 36 | 27 | 32 | 5 | 9 |  |  |  |  |  |  |  | IC50 (786-O (renal) cells; Homo sapiens, 786-0): 320 ± 10 nM; IC50 ([2]; Homo sapiens, WI-38): 230 ± 10 nM; IC50 (Panc1 (pancreatic) cells; Homo sapiens, PANC-1, 96 hr exposure): 3 ± 0.5 nM; IC50 (RCC4 (renal) cells; Homo sapiens, RCC4): 560 ± 50 nM; IC50 (A549 (lung) cells; Homo sapiens, A549, 96 hr exposure): 19 ± 5 nM; IC50 ([6]; Homo sapiens, MIA PaCa-2): 10 ± 10 nM; IC50 (MCF-7 (breast) cells; Homo sapiens, MCF7): 70 ± 7 nM |
| COCCCNc1cc2c3c(c(NCCCOC)cc4c3c1C(=O)N(CCCN1CCN(C)CC1)C4=O)C(=O)N(CCCN1CCN(C)CC1)C2=O [SKM022] | 22 | 26 | 22 | 24 | <2 | 16 | 0 | 0 | 16100 ± 630 | > 25000 | 2500 ± 340 | 7600 ± 10 | 5750 ± 510 | 7050 ± 830 | 17500 ± 980 |  |
| CN1CCN(CCCN2C(=O)c3cc(NCCCN4CCOCC4)c4c5c(cc(NCCCN6CCOCC6)c(c35)C2=O)C(=O)N(CCCN2CCN(C)CC2)C4=O)CC1 [SKM029] | 30 | 34 | 34 | 36 | 29 | 34 | 5 | 9 | 440 ± 70 | 300 ± 23 | 2 ± 1 | 610 ± 70 | 7 ± 1 | 50 ± 2 | 14 ± 1 |  |
| CN1CCN(CCN2C(=O)c3cc(NCCCN4CCOCC4)c4c5c(cc(NCCCN6CCOCC6)c(c35)C2=O)C(=O)N(CCN2CCN(C)CC2)C4=O)CC1 [SKM036] | 28 | 32 | 33 | 36 | 26 | 31 | 2 | 8 | 160 ± 21 | 180 ± 2 | 5 ± 1 | 300 ± 16 | 20 ± 1 | 5 ± 1 | 21 ± 1 |  |
| CN1CCN(CCCN2C(=O)c3cc(NCC4CCOCC4)c4c5c(cc(NCC6CCOCC6)c(c35)C2=O)C(=O)N(CCCN2CCN(C)CC2)C4=O)CC1 [SKM052] | 3 | 23 | 2 | 27 | <2 | 22 | 0 | 0 | 290 ± 2 | 2800 ± 230 | 1100 ± 130 | 2200 ± 15 | 460 ± 10 | 137 ± 31 | 510 ± 17 |  |
